US7910568B2, “Derivatives of 4- or 5-aminosalicylic acid” (Antibe Therapeutics Inc., priority 2005, dated 2011)

Tests used:
[1] = system: visceral pain perception in response to colorectal distension; test: Rat model of visceral pain perception, colorectal distension, abdominal withdrawal reflex score; format: in vivo; details: for Pain perception score after glibenclamide pretreatment: glibenclamide 10 mg/kg i.p. 30 min before
Description: A rat model of visceral pain perception, a pre-clinical model of irritable bowel syndrome, was used in the following example. Rats (male, Wistar, 200-250 g, obtained from Charles River, Monza, Italy), were housed in plastic cages and maintained under controlled conditions with 12-hours light/dark cycle with lights on at 7.00 AM. Tap water and standard laboratory chow were freely available. Before experiments, rats were individually trained by spending 2-3 hours per day in a plexiglass cage for 2-3 days. It allowed them to adjust to a movement-restriction environment. Food was withheld for 12 hours before colorectal distension (CRD) recording were performed. Experiments were performed in awake rats and were conducted in a blind manner in that the observer was not aware of the identity of drug administered to each animal.
In the testing day, rats were sedated with ether inhalation and a 2 cm long latex balloon was inserted intrarectally 2 cm from the anal verge and fixed at the base of the tail. The balloon was connected via a double-barreled cannula to a pressure transducer to continuously monitoring the rectal pressure by a computer (PowerLab PC, A.D. Instruments, Milford, Mass., USA) and to a syringe for inflation/deflation of the balloon. The rats were then housed in a small cage (20×8×8 cm) on an elevated Plexiglas™ platform and allowed to wake up and adapt for 1 hour. After recovery from sedation, animals underwent the CRD procedure and behavioral responses were tested. The night before the experiments, the balloons were inflated and left overnight so the latex stretched and the balloons became compliant.
CRD of 20 seconds, performed every 5 minutes, was applied in increment of 0.4 ml starting from 0.4 ml up to 1.6 ml water. To achieve an accurate measurement of the colonic parameters and perception, the distensions were repeated twice for each intensity and data for each animal were averaged for analysis. Each animal underwent a double set of CRD. Twenty minutes after the first sequence of CRD (0.4 mL-1.6 ml water), drugs were administered intraperitoneally (i.p.) and a second set of CRD was performed. Behavioral responses during the first and the second set of CRD were assessed and compared.
Behavioral response to CRD was assessed by measuring the abdominal withdrawal reflex (AWR) using a semiquantitative score (1).
The effects of mesalamine and Compound XXXV on colonic compliance and sensitivity were determined using a total of 8 fasting rats. To investigate whether the administration of mesalamine and Compound XXXV could revert pain induced by CRD, after the first sequence of CRD, […], after which a second set of CRD was repeated.
All data are presented as the mean±SEM, with sample sizes of 4 rats/group; statistical comparison of paired data was performed by the Wilcoxon signed rank test. An associated probability (p value) of less that 5% was considered significant.

[2] = H2S generation in buffer, liver homogenate and liver homogenate with PAG, sulfide sensitive electrode; format: in vitro ADME, rat; details: 1 mM compound, FIG. 21; for H2S release in buffer: potassium phosphate buffer pH 7.4, 37° C.; for Effect of PAG (DL-propargylglycine) on H2S generation in liver homogenate: PAG 2 mM, inhibitor of cystathionine γ-lyase
thoracic aorta rings = test: Vasorelaxant effect on phenylephrine-precontracted thoracic aorta rings; design: species or system CD-1 mice; details: cumulative 10 nM-3 mM on PE (1 μM) precontracted rings with endothelium; FIG. 22
Description: CD-1 mice were sacrificed and thoracic aorta was rapidly dissected and cleaned from fat and connective tissue. […] Changes in isometric tension were recorded with PowerLab™ data acquisition system (Ugo Basile, Italy). […] Rings were initially stretched until a resting tension of 1.5 g was reached and allowed to equilibrate for at least 40 minutes during which tension was adjusted, when necessary, to 1.5 g and bathing solution was periodically changed.
Vehicle represents buffer but no compound. Curves to tested compounds were constructed in presence of endothelium.
Data obtained are shown in FIG. 22 and are expressed as mean±SEM. The level of statistical significance was determined by 2-way analysis of variance (ANOVA) followed by Bonferroni's test for multiple comparison, using the GraphPad™ software.

TNBS-induced colitis = TNBS-induced colitis in mice, disease activity score; format: in vivo; details: Compound XXVII 100 mg/kg vs mesalamine 50 mg/kg, 4-HTB 50 mg/kg and their mixture; FIG. 5
Description: (§1) A standard experimental animal model of colitis induced by intracolonic administration of 2,4,6-trinitrobenzene sulfonic acid (TNBS) to mice is used in the following example. A detailed description of this model has been published (Santucci et al. (2003) Gastroenterology 124:1381-94) and is incorporated herein by reference. Briefly, 6-8 week old Balb/c mice were given TNBS intracolonically at a dose of 1.5 mg in 0.1 mL of 30% ethanol. The mice were randomized to the various treatment groups (n=6 per group). Beginning one hour later and continuing every 12 h for 5 days, the mice were treated orally with vehicle (1% carboxymethylcellulose (CMC)), 5-ASA (mesalamine) (25, 50 or 75 mg/kg) or with equimolar doses of 2-hydroxy-5-amino-benzoic acid 4-(thioxo-5H-[1,2]dithiol-3-yl)-phenyl ester hydrochloride (Compound XXXV) (130 mg/kg), or with […] (100 mg/kg), 50% (66 mg/kg) and 25% (33 mg/kg) of that dose. The mice were evaluated (blindly) on the final day of the study for the presence of diarrhea and fecal occult blood, and their body weights were measured. […] After sacrifice, a sample of the colon was excised for measurement of myeloperoxidase (MPO) activity, as a marker of granulocyte infiltration. All results were compared to those obtained with healthy mice as well.

[3] = system: myeloperoxidase (MPO) activity; test: TNBS-induced colitis in mice, colonic myeloperoxidase (MPO) activity as marker of granulocyte infiltration; format: in vivo; details: Compound XXVII 100 mg/kg; FIG. 6
Description: as §1

[4] = system: leukocyte adherence to the vascular endothelium; test: Aspirin-induced leukocyte adherence to the vascular endothelium, intravital microscopy of mesenteric venules; format: in vivo, rat
Description: Leukocyte adherence was studied using intravital microscopy, as described in detail previously (Wallace et al., (1993) Am. J. Physiol. 265: 993-998, incorporated hereto by reference). Rats were anesthetized with pentobarbital sodium (60 mg/kg i.p.) and cautery incisions were made along the abdominal region. A tracheotomy was performed to facilitate breathing. The rats were placed in a supine position, and a segment of the mesentery was exteriorized through the abdominal incision. The mesentery was carefully placed over an optically clear viewing pedestal that allowed for trans-illumination of a 2-cm^2 segment of tissue. All exposed tissue was covered with saline-soaked gauze to minimize dehydration. The temperature of the pedestal was kept at 37° C. and the mesentery was superfused with warmed bicarbonate-buffered saline (pH 7.4). An intravital microscope (Nikon L25/0.35) and a ×10 eyepiece were used to observe the mesenteric microcirculation. Post-capillary venules with diameters ranging from 20 to 40 μm were selected for the study. A video camera mounted on the microscope (Panasonic™ digital 5000) projected the image onto a monitor, and the images were recorded for playback analysis using a videocassette recorder. Images of the mesenteric microcirculation were recorded 5 minutes prior to aspirin administration (baseline), at the time of aspirin administration (time 0-5) and every 15 minutes for 60 minutes. Leukocyte adherence was blindly quantified from videotaped images of the vessels made over 5-min periods as the number of leukocytes that remained stationary along the vessel wall for 30 s or more (expressed per 100 μm venule length). Groups of rats (at least 5 in each) were pretreated with Compound XXXV (130 mg/kg), Compound XXVII (100 mg/kg), mesalamine (50 mg/kg), or vehicle 60 min prior to aspirin (or vehicle) administration. These drugs were given intragastrically. In some experiments, rats were treated with glibenclamide (10 mg/kg i.p.) or vehicle 30 min prior to administration of these compounds.

[5] = Viability of HT-29 human colon cancer cells, MTT assay; format: cell-based; details: HT-29 colon cancer cells, 72 h exposure, HT-29, MTT, read-out: Cell viability rate as a percent of the vehicle (DMSO)-treated cells
Description: HT-29 cells were grown in culture using standard methods. The cells were exposed to vehicle (DMSO), mesalamine or Compound XXXV. Concentrations ranging from 0.1 to 10 μM were tested, with each concentration tested in 6 wells. At the end of 72 h of exposure to the test drugs, cell viability was measured using the MTT [3-(4,5-dimethylthiaxol-2-yl)-2,5-diphenyltetrazolium bromide] assay (Carmichael et al. (1978) Cancer Res. 47, 936-942), incorporated herein by reference.

[6] = after patients have taken the usual doses; Dig. Dis. Sci. 1989; 34: 573-578; cited from earlier work
[7] = equimolar doses: mesalamine 50 mg/kg, Compound XXXV 130 mg/kg, ADT-OH 80 mg/kg, Compound XXVII 100 mg/kg, 4-HTB 50 mg/kg, vs vehicle
[8] = 0.8 mL colorectal distention, 100 mg/kg, FIG. 17

In the case of `Oc1ccc(-c2cc(=S)ss2)cc1` [ADT-OH, 5-p-hydroxyphenyl-1,2-dithione-3-thione, reference compound], the Pain perception score [1, 7] is reported as “Only Compound XXXV and Compound XXVII significantly reduced pain perception” and the “H2S release in buffer” value [2] is reported as “did not release significant H2S”.
In the case of `NC(=S)c1ccc(O)cc1` [Compound 4-HTB, 4-hydroxythiobenzamide, reference compound], the Pain perception score [1, 7] is reported as “Only Compound XXXV and Compound XXVII significantly reduced pain perception”, the “H2S release in buffer” value [2] is reported as “did not release significant H2S” and the “Vasorelaxant effect (% relaxation), concentration dependent, compared to vehicle” value (thoracic aorta rings) is reported as “significant vasorelaxant effects”.
With `NC(=S)c1ccc(OC(=O)c2cc(N)ccc2O)cc1` [Compound XXVII, 5-Amino-2-hydroxy-benzoic acid 4-thiocarbamoyl-phenyl ester] the “Disease Activity Index” value (TNBS-induced colitis) was “almost three times as effective as either mesalamine alone, 4-HTB alone or a mixture of mesalamine and 4-HTB”, the “MPO activity (granulocyte infiltration)” value [3] was “significantly reduced inflammation” and the “Pain perception score after glibenclamide pretreatment” value [1, 8] was “reversed by pretreatment with glibenclamide”. The Pain perception score [1, 8] was “significantly reduced the pain perception”, the Pain perception score [1, 7] was “significantly reduced pain perception” and the “Aspirin-induced leukocyte adherence, final time period” value ([4]; minutes 60-65, XXXV 130 mg/kg, XXVII 100 mg/kg intragastric, FIG. 20) was “suppress aspirin-induced leukocyte adherence”. The “Aspirin-induced leukocyte adherence, final time period, after glibenclamide pretreatment” value ([4]; minutes 60-65, glibenclamide 10 mg/kg i.p., FIG. 20) was “reverse this inhibitor effect”, the “Effect of PAG (DL-propargylglycine) on H2S generation in liver homogenate” value [2] was “lack of effect” and the “H2S release in buffer” value [2] was “release H2S spontaneously (in buffer)”. For the same molecule, the “H2S release in liver homogenate compared with buffer” value ([2]; rat liver homogenate 10% (wt/vol)) was “greater when in the presence of tissue”.
In the case of `COc1ccc(Cl)cc1C(=O)NCCc1ccc(S(=O)(=O)NC(=O)NC2CCCCC2)cc1` [Glibenclamide, glibenclamide, reference compound], the “Leukocyte adherence without aspirin” value ([4]; glibenclamide alone, 10 mg/kg i.p.) is reported as “did not affect leukocyte adherence” and the Aspirin-induced leukocyte adherence ([4]; intragastric pretreatment 60 min prior to aspirin (XXXV 130 mg/kg, mesalamine 50 mg/kg), glibenclamide 10 mg/kg i.p., FIG. 19) is reported as “did not affect the magnitude of aspirin-induced leukocyte adherence”.
With `N[C@@H](CS)C(=O)O` [L-cysteine, reference compound] the “Effect of PAG (DL-propargylglycine) on H2S generation in liver homogenate” value [2] was “markedly inhibited” and the “H2S release in buffer” value [2] was “did not release significant H2S”.
For `Nc1ccc(O)c(C(=O)O)c1` [Mesalamine, 5-aminosalicylic acid], the viability at 72 h, 0.1 µM ([5]; 0.1 μM) was 104 ± 2.5%, the viability at 72 h, 1 µM ([5]; 1 μM) was 101 ± 3.5% and the viability at 72 h, 10 µM ([5]; 10 μM) was 91.1 ± 3.2%. The “Pain perception score after glibenclamide pretreatment” value [1, 8] was “did not affect the pain perception”, the Pain perception score [1, 8] was “no significant effect” and the Pain perception score [1, 7] was “Only Compound XXXV and Compound XXVII significantly reduced pain perception”. The “Aspirin-induced leukocyte adherence after glibenclamide pretreatment” value ([4]; glibenclamide 10 mg/kg i.p. 30 min prior to the compound, FIG. 19) was “no effect” and the “Concentration in the colonic lumen” value [6] was “up to 5 mM”.
In the case of `CC(=N)S` [thioacetamide], the “Vasorelaxant effect (% relaxation), concentration dependent, compared to vehicle” value (thoracic aorta rings) is reported as “significant vasorelaxant effects”.
